Measured values reported in patent US20260232767A1, “INTERLEUKIN-23 RECEPTOR ANTAGONIST PEPTIDES FOR USE IN THE TREATMENT OF PSORIASIS” (Janssen Pharmaceutica NV, priority 2023, published 2026).

Test system: subjects with moderate-to-severe plaque psoriasis
Assay: PASI response, Example 1 16-week dose-ranging study
Type: in vivo, human
Conditions: for PASI 100% Improvement, subjects / PASI ≥75% Improvement, subjects / PASI ≥90% Improvement, subjects: Combined doses
Protocol: The Psoriasis Area and Severity Index (PASI) is a system used for assessing and grading the severity of psoriatic lesions and their response to therapy. In the PASI system, the body is divided into four regions: the head, trunk, upper extremities, and lower extremities. Each of these areas is assessed and scored separately for erythema, induration, and scaling, which are each rated on a scale of 0 to 4 and extent of involvement on a scale of 0 to 6. The PASI produces a numeric score (a “PASI score”) that can range from 0 to 72. A higher score indicates more severe disease.
This was a randomized, double-blind, placebo-controlled, dose-ranging, parallel group, multicenter, interventional study in subjects with moderate-to-severe plaque psoriasis. A target of 240 subjects were enrolled in this study with 40 subjects planned per intervention group.
Clinician-reported outcomes including Psoriasis Area and Severity Index (PASI), Body Surface Area (BSA), Investigator's Global Assessment (IGA), Nail Psoriasis Area and Severity Index (NAPSI), Fingernail Physician's Global Assessment (f-PGA), Static Physician's Global Assessment of Genitalia (s-PGA-G), Physician's Global Assessment of Hands and/or Feet (hf-PGA), and Scalp Specific Investigator Global Assessment (ss-IGA) were obtained at Week 0, 8, and 16. PASI and IGA were also obtained at Weeks 1, 2, 4, and 12, and at Week 20, four weeks after the administration of the tablets has stopped.
The primary efficacy endpoint was the proportion of participants achieving a PASI 75 response at Week 16, defined as at least a 75% reduction from baseline in PASI total score.
For the primary analysis, composite strategy (non-responder imputation) was applied to address intercurrent event #1 (Discontinuation of study intervention due to lack of efficacy or due to an AE of worsening of psoriasis) and #2 (initiation of a protocol-prohibited medication or therapy that could improve psoriasis); and treatment policy strategy (observed data) was applied to intercurrent event #3 (Discontinuation of study intervention due to other reasons). Participants with missing data after application of ICEs are also considered as non-responders.
In addition to the response analysis, pairwise comparisons of each treatment group versus the placebo group were performed for the primary endpoint of PASI 75 at Week 16. Pairwise comparisons were not adjusted for multiplicity. The Cochran-Mantel-Haenszel chi-square statistic stratified by baseline weight category (≤90 kg, >90 kg) at a 2-sided significance level of 0.05 was used (Table 2).

[1] = Week 16, trough plasma conc Q2 to <Q3
[2] = Week 16, trough plasma conc ≥Q3
[3] = Week 16, 25 mg BID, intermediate plasma concentration quartile <Q1, N=1
[4] = Week 16, 25 mg BID, intermediate plasma concentration quartile Q1 to <Q2, N=1
[5] = Week 16, 25 mg BID, intermediate plasma concentration quartile Q2 to <Q3, N=1
[6] = Week 16, 25 mg BID, intermediate plasma concentration quartile ≥Q3, N=1
[7] = Week 16, 25 mg QD, intermediate plasma concentration quartile Q1 to <Q2, N=1
[8] = Week 16, 25 mg QD, intermediate plasma concentration quartile Q2 to <Q3, N=1
[9] = Week 16, 25 mg QD, intermediate plasma concentration quartile ≥Q3, N=1
[10] = Week 16, 50 mg QD, intermediate plasma concentration quartile <Q1, N=1
[11] = Week 16, 50 mg QD, intermediate plasma concentration quartile Q1 to <Q2, N=1
[12] = Week 16, 50 mg QD, intermediate plasma concentration quartile Q2 to <Q3, N=1
[13] = Week 16, 50 mg QD, intermediate plasma concentration quartile ≥Q3, N=2
[14] = Week 16, 100 mg BID, intermediate plasma concentration quartile <Q1, N=1
[15] = Week 16, 100 mg BID, intermediate plasma concentration quartile Q1 to <Q2, N=1
[16] = Week 16, 100 mg BID, intermediate plasma concentration quartile Q2 to <Q3, N=1
[17] = Week 16, 100 mg BID, intermediate plasma concentration quartile ≥Q3, N=2
[18] = Week 16, 100 mg QD, intermediate plasma concentration quartile <Q1, N=1
[19] = Week 16, 100 mg QD, intermediate plasma concentration quartile Q1 to <Q2, N=1
[20] = Week 16, 100 mg QD, intermediate plasma concentration quartile Q2 to <Q3, N=1
[21] = Week 16, 100 mg QD, intermediate plasma concentration quartile ≥Q3, N=1
[22] = Week 16, Combined regimens, intermediate plasma concentration quartile <Q1, N=5
[23] = Week 16, Combined regimens, intermediate plasma concentration quartile Q1 to <Q2, N=5
[24] = Week 16, Combined regimens, intermediate plasma concentration quartile Q2 to <Q3, N=5
[25] = Week 16, Combined regimens, intermediate plasma concentration quartile ≥Q3, N=6

**Q.** Which results are given for `CC(=O)NCCCC[C@@H]1NC(=O)[C@H](Cc2c[nH]c3c(C)cccc23)NC(=O)[C@H]([C@@H](C)O)NC(=O)[C@H](CC(N)=O)NC(=O)[C@@H](NC(C)=O)C(C)(C)SSC(C)(C)[C@@H](C(=O)N[C@@H](Cc2ccc(OCCN)cc2)C(=O)N[C@@H](Cc2ccc3ccccc3c2)C(=O)NC2(C(=O)N[C@@H](CCC(=O)O)C(=O)N[C@@H](CC(N)=O)C(=O)N[C@@H](Cc3cccnc3)C(=O)N(C)CC(N)=O)CCOCC2)NC1=O` [IL-23 receptor antagonist peptide, Ac-[Pen]*-N-T-[W(7-Me)]-[Lys(Ac)]-[Pen]*-Phe[4-(2-aminoethoxy)]-[2-Nal]-[THP]-E-N-[3-Pal]-Sarc-NH2 (*[Pen]-[Pen]* formdisulfidebond)]?
**A.** PASI 100% Improvement, subjects [1]: 4 (15.4%); PASI ≥75% Improvement, subjects [1]: 14 (53.8%); PASI ≥90% Improvement, subjects [1]: 11 (42.3%); PASI 100% Improvement, subjects [2]: 9 (33.3%); PASI ≥75% Improvement, subjects [2]: 22 (81.5%); PASI ≥90% Improvement, subjects [2]: 15 (55.6%); PASI 100% Improvement, subjects n (%) [3]: 0; PASI ≥75% Improvement, subjects n (%) [3]: 0; PASI ≥90% Improvement, subjects n (%) [3]: 0; PASI 100% Improvement, subjects n (%) [4]: 0; PASI ≥75% Improvement, subjects n (%) [4]: 1 (100.0%); PASI ≥90% Improvement, subjects n (%) [4]: 0; PASI 100% Improvement, subjects n (%) [5]: 0; PASI ≥75% Improvement, subjects n (%) [5]: 0; PASI ≥90% Improvement, subjects n (%) [5]: 0; PASI 100% Improvement, subjects n (%) [6]: 0; PASI ≥75% Improvement, subjects n (%) [6]: 1 (100.0%); PASI ≥90% Improvement, subjects n (%) [6]: 1 (100.0%); PASI 100% Improvement, subjects n (%) [7]: 0; PASI ≥75% Improvement, subjects n (%) [7]: 0; PASI ≥90% Improvement, subjects n (%) [7]: 0; PASI 100% Improvement, subjects n (%) [8]: 1 (100.0%); PASI ≥75% Improvement, subjects n (%) [8]: 1 (100.0%); PASI ≥90% Improvement, subjects n (%) [8]: 1 (100.0%); PASI 100% Improvement, subjects n (%) [9]: 0; PASI ≥75% Improvement, subjects n (%) [9]: 0; PASI ≥90% Improvement, subjects n (%) [9]: 0; PASI 100% Improvement, subjects n (%) [10]: 0; PASI ≥75% Improvement, subjects n (%) [10]: 1 (100.0%); PASI ≥90% Improvement, subjects n (%) [10]: 0; PASI 100% Improvement, subjects n (%) [11]: 1 (100.0%); PASI ≥75% Improvement, subjects n (%) [11]: 1 (100.0%); PASI ≥90% Improvement, subjects n (%) [11]: 1 (100.0%); PASI 100% Improvement, subjects n (%) [12]: 1 (100.0%); PASI ≥75% Improvement, subjects n (%) [12]: 1 (100.0%); PASI ≥90% Improvement, subjects n (%) [12]: 1 (100.0%); PASI 100% Improvement, subjects n (%) [13]: 0; PASI ≥75% Improvement, subjects n (%) [13]: 1 (50.0%); PASI ≥90% Improvement, subjects n (%) [13]: 1 (50.0%); PASI 100% Improvement, subjects n (%) [14]: 1 (100.0%); PASI ≥75% Improvement, subjects n (%) [14]: 1 (100.0%); PASI ≥90% Improvement, subjects n (%) [14]: 1 (100.0%); PASI 100% Improvement, subjects n (%) [15]: 1 (100.0%); PASI ≥75% Improvement, subjects n (%) [15]: 1 (100.0%); PASI ≥90% Improvement, subjects n (%) [15]: 1 (100.0%); PASI 100% Improvement, subjects n (%) [16]: 0; PASI ≥75% Improvement, subjects n (%) [16]: 1 (100.0%); PASI ≥90% Improvement, subjects n (%) [16]: 0; PASI 100% Improvement, subjects n (%) [17]: 2 (100.0%); PASI ≥75% Improvement, subjects n (%) [17]: 2 (100.0%); PASI ≥90% Improvement, subjects n (%) [17]: 2 (100.0%); PASI 100% Improvement, subjects n (%) [18]: 1 (100.0%); PASI ≥75% Improvement, subjects n (%) [18]: 1 (100.0%); PASI ≥90% Improvement, subjects n (%) [18]: 1 (100.0%); PASI 100% Improvement, subjects n (%) [19]: 1 (100.0%); PASI ≥75% Improvement, subjects n (%) [19]: 1 (100.0%); PASI ≥90% Improvement, subjects n (%) [19]: 1 (100.0%); PASI 100% Improvement, subjects n (%) [20]: 0; PASI ≥75% Improvement, subjects n (%) [20]: 1 (100.0%); PASI ≥90% Improvement, subjects n (%) [20]: 0; PASI 100% Improvement, subjects n (%) [21]: 0; PASI ≥75% Improvement, subjects n (%) [21]: 1 (100.0%); PASI ≥90% Improvement, subjects n (%) [21]: 0); PASI 100% Improvement, subjects n (%) [22]: 3 (60.0%); PASI ≥75% Improvement, subjects n (%) [22]: 4 (80.0%); PASI ≥90% Improvement, subjects n (%) [22]: 3 (60.0%); PASI 100% Improvement, subjects n (%) [23]: 2 (40.0%); PASI ≥75% Improvement, subjects n (%) [23]: 3 (60.0%); PASI ≥90% Improvement, subjects n (%) [23]: 2 (40.0%); PASI 100% Improvement, subjects n (%) [24]: 1 (20.0%); PASI ≥75% Improvement, subjects n (%) [24]: 3 (60.0%); PASI ≥90% Improvement, subjects n (%) [24]: 1 (20.0%); PASI 100% Improvement, subjects n (%) [25]: 3 (50.0%); PASI ≥75% Improvement, subjects n (%) [25]: 6 (100.0%); PASI ≥90% Improvement, subjects n (%) [25]: 5 (83.3%); Improvement (reduction) in PASI total score from baseline (each dose group vs placebo, Week 16): significantly greater improvement
